According to ChEMBL document CHEMBL4373639, “How mithramycin stereochemistry dictates its structure and DNA binding function” (Medchemcomm, 2019):

Assay: Binding affinity to dsDNA oligomer GAGGCCTC (unknown origin) assessed as binding constant incubated for 16 hrs in presence of […] by fluorescence based assay

Row | Kd [µM] | SMILES
1 | < 1 | CO[C@H](C(=O)[C@@H](O)[C@@H](C)O)[C@@H]1Cc2cc3cc(O[C@H]4C[C@@H](O[C@H]5C[C@@H](O)[C@H](O)[C@@H](C)O5)[C@H](O)[C@@H](C)O4)c(C)c(O)c3c(O)c2C(=O)[C@H]1O[C@H]1C[C@@H](O[C@H]2C[C@@H](O[C@H]3C[C@](C)(O)[C@H](O)[C@@H](C)O3)[C@H](O)[C@@H](C)O2)[C@H](O)[C@@H](C)O1
2 | 1.6 | COC(=O)[C@H](Cc1ccccc1)NC(=O)[C@@H](OC)[C@@H]1Cc2cc3cc(O[C@H]4C[C@@H](O[C@H]5C[C@@H](O)[C@H](O)[C@@H](C)O5)[C@H](O)[C@@H](C)O4)c(C)c(O)c3c(O)c2C(=O)[C@H]1O[C@H]1C[C@@H](O[C@H]2C[C@@H](O[C@H]3C[C@](C)(O)[C@H](O)[C@@H](C)O3)[C@H](O)[C@@H](C)O2)[C@H](O)[C@@H](C)O1
